One assay addresses BTK wildtype protein (Homo sapiens (Human), UniProt Q06187). The experiment in a line: BTK wildtype HTRF displacement assay. The class given is binding. As to conditions: 1-hour incubation; read-out: BTK (wt) IC50. How it is done: (§1) The ability of a compound to bind BTK wildtype or BTK C481S proteins was measured using an HTRF displacement assay. The assay measures the ability of a compound to displace a tracer ligand bound to the active site of BTK wildtype or BTK C481 S proteins.
(§2) Test compounds were prepared as 10 mM stock solutions in DMSO (Fisher cat #BP231-100). Compounds to be assayed were dispensed using an Echo 650 acoustic dispenser (Beckman Coulter) on a 384 well plate in 6 doses applying four-fold dilutions from the highest concentration of 5 μM. N-terminal GST-tagged recombinant full-length BTK wildtype protein and BTK C481 S protein 2-659 were purchased from Carna Biosciences, Inc (Kobe, Japan). BTK wildtype or BTK C481S protein was separately incubated with compound in assay buffer containing kinase tracer 239 (Thermo Fisher) and Mab anti GST-Th (PerkinElmer). After a 1-hour incubation at room temperature, the HTRF signal was measured using SPARK plate reader (Tecan) using the TR fluorescence mode. The HTRF ratio is calculated for DMSO, no protein control and compound samples using the following equation: HTRF ratio=Emmision665/Emmision620×10^4. The signal for the no protein control samples was used to subtract background noise from the DMSO and compound samples. Background subtracted HTRF ratios are used to calculate the percent inhibition, where DMSO controls are set to 0 percent inhibition. The percent inhibition is plotted as a function of compound concentration and IC50 values were calculated from a four-parameter logistic fit in Prism v9.4 (GraphPad), where the bottom and top are constrained to 0 and 100, respectively.
(TR-FRET usually uses a lanthanide donor and a delayed reading to cut background.)

The next assay has as its target BTK C481S protein (Homo sapiens (Human), UniProt Q06187, C481S). The experiment in a line: BTK C481S HTRF displacement assay. As to conditions: 1-hour incubation. The class given is binding. How it is done:
as §1, §2
The same assay was used to measure the activity of selected compounds of the formula TBM-L-hydrogen. Using the IC50 value observed for a given reversible test compound, the KI of the test compound can be assessed using the formula KI=IC50/(1+([Tracer]/Kd)), wherein the tracer concentration in the assay [Tracer] is 50 nM and the tracer Kd for BTK C481S is 54 nM.

Bounds are passed on as bounds.

One may read the IC50 as the concentration needed to halve the response being measured.

BTK C481S protein, sequence (Q06187 2-659 C481S): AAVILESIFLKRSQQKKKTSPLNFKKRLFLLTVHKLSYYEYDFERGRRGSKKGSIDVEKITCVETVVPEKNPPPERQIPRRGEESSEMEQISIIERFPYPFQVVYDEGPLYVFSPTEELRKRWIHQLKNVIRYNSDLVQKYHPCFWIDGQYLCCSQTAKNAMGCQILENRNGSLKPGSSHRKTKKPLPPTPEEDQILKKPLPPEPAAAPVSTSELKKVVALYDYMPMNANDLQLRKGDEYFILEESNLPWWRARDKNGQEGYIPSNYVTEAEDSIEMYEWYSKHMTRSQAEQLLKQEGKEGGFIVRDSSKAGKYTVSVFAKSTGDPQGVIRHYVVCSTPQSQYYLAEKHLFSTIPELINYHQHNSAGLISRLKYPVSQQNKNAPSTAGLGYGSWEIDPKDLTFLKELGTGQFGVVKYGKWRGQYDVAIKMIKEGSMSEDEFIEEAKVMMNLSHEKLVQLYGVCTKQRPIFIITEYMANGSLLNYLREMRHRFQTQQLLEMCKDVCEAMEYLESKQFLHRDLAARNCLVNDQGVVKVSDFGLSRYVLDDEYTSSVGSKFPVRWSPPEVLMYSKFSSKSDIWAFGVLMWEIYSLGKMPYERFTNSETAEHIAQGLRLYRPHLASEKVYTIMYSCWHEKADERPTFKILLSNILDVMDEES
BTK wildtype protein, sequence (Q06187 2-659): as the sequence (Q06187 2-659 C481S) above, with S480C counted along it

With `COc1ccc(F)cc1C(=O)NCc1ccc(-c2nn(C(C)CC3CCCCN3C(=O)n3cncn3)c3ncnc(N)c23)cc1` (stereo not shown) [Compound 129, N-(4-(1-(1-(1-(1H-1,2,4-triazole-1-carbonyl)piperidin-2-yl)propan-2-yl)-4-amino-1H-pyrazolo[3,4-d]pyrimidin-3-yl)benzyl)-5-fluoro-2-methoxybenzamide], the IC50 on BTK wildtype protein and at BTK C481S protein was > 1000 nM each time.
Turning to `COc1ccc(F)cc1C(=O)NCc1ccc(-c2nn(C[C@@H]3CCCC[C@H]3CN(C)C(=O)n3cncn3)c3ncnc(N)c23)cc1` [Compound 130, N-(((1R,2R)-2-((4-amino-3-(4-((5-fluoro-2-methoxybenzamido)methyl)phenyl)-1H-pyrazolo [3,4-d]pyrimidin-1-yl)methyl)cyclohexyl)methyl)-N-methyl-1H-1,2,4-triazole-1-carboxamide], the IC50 on BTK wildtype protein and on BTK C481S protein was ≤ 1000 nM in each case.
Consider `CN(C(=O)n1cncn1)C1CCC2C(CNc3c(C(N)=O)c(-c4ccc(Oc5ccccc5)cc4)nn32)C1` (stereo not shown) [Compound 131, 7-(N-methyl-1H-1,2,4-triazole-1-carboxamido)-2-(4-phenoxyphenyl)-4,5,5a,6,7,8,9,9a-octahydropyrazolo [1,5-a]quinazoline-3-carboxamide], for which the IC50 on BTK wildtype protein and at BTK C481S protein was > 1000 nM throughout.
As to `COc1ccc(F)cc1C(=O)NCc1ccc(-c2nn(C[C@H](C3CC3)N(C)C(=O)n3cncn3)c3ncnc(N)c23)cc1` [Compound 132, (S)-N-(2-(4-amino-3-(4-((5-fluoro-2-methoxybenzamido)methyl)phenyl)-1H-pyrazolo[3,4-d]pyrimidin-1-yl)-1-cyclopropylethyl)-N-methyl-1H-1,2,4-triazole-1-carboxamide], the IC50 at BTK wildtype protein and at BTK C481S protein was > 1000 nM in each case.
In the case of `COc1ccc(F)cc1C(=O)NCc1ccc(-c2nn(-c3ccc(CN(C)C(=O)n4cncn4)cc3)c3ncnc(N)c23)cc1` [Compound 138, N-(4-(4-amino-3-(4-((5-fluoro-2-methoxybenzamido)methyl)phenyl)-1H-pyrazolo[3,4-d]pyrimidin-1-yl)benzyl)-N-methyl-1H-1,2,4-triazole-1-carboxamide], the IC50 at BTK wildtype protein and at BTK C481S protein was ≤ 1000 nM each time.
As for `COc1ccc(F)cc1C(=O)NCc1ccc(-c2nn(C(CC3CCC3)CN(C)C(=O)n3cncn3)c3ncnc(N)c23)cc1` (stereo not shown) [Compound 139, N-(2-(4-amino-3-(4-((5-fluoro-2-methoxybenzamido)methyl)phenyl)-1H-pyrazolo[3,4-d]pyrimidin-1-yl)-3-cyclobutylpropyl)-N-methyl-1H-1,2,4-triazole-1-carboxamide], the IC50 at BTK wildtype protein and on BTK C481S protein was > 1000 nM in each case.
Consider `COc1ccc(F)cc1C(=O)NCc1ccc(-c2nn(Cc3ccccc3N(C)C(=O)n3cncn3)c3ncnc(N)c23)cc1` [Compound 141, N-(2-((4-amino-3-(4-((5-fluoro-2-methoxybenzamido)methyl)phenyl)-1H-pyrazolo[3,4-d]pyrimidin-1-yl)methyl)phenyl)-N-methyl-1H-1,2,4-triazole-1-carboxamide], for which the IC50 was ≤ 1000 nM on BTK wildtype protein and > 1000 nM on BTK C481S protein.
As for `Cc1[nH]c2c(C(N)=O)cc(F)c(N3CCC4(CC3)CCN4C(=O)n3cncn3)c2c1C` [Compound 142, 4-(1-(1H-1,2,4-triazole-1-carbonyl)-1,7-diazaspiro[3.5]nonan-7-yl)-5-fluoro-2,3-dimethyl-1H-indole-7-carboxamide], the IC50 on BTK wildtype protein and on BTK C481S protein was ≤ 1000 nM in each case.
For `COc1ccc(F)cc1C(=O)NCc1ccc(-c2nn(-c3ccccc3CN(C)C(=O)n3cncn3)c3ncnc(N)c23)cc1` [Compound 143, N-(2-(4-amino-3-(4-((5-fluoro-2-methoxybenzamido)methyl)phenyl)-1H-pyrazolo[3,4-d]pyrimidin-1-yl)benzyl)-N-methyl-1H-1,2,4-triazole-1-carboxamide], the IC50 on BTK wildtype protein and on BTK C481S protein was > 1000 nM in each case.
As for `CC1CC(n2nc(-c3ccc(Oc4ccccc4)cc3)c3c(N)ncnc32)CCN1C(=O)n1cncn1` (stereo not shown) [Compound 144, (4-(4-amino-3-(4-phenoxyphenyl)-1H-pyrazolo[3,4-d]pyrimidin-1-yl)-2-methylpiperidin-1-yl)(1H-1,2,4-triazol-1-yl)methanone], the IC50 on BTK wildtype protein and at BTK C481S protein was ≤ 1000 nM in each case.
Consider `COc1ccc(F)cc1C(=O)NCc1ccc(-c2nn(CC3CCN3C(=O)n3cncn3)c(N)c2C(N)=O)cc1` (stereo not shown) [Compound 145, 1-((1-(1H-1,2,4-triazole-1-carbonyl)azetidin-2-yl)methyl)-5-amino-3-(4-((5-fluoro-2-methoxybenzamido)methyl)phenyl)-1H-pyrazole-4-carboxamide], for which the IC50 at BTK wildtype protein and on BTK C481S protein was ≤ 1000 nM each time.
Turning to `COc1ccc(F)cc1C(=O)NCc1ccc(-c2nn(CCC3CCCCN3C(=O)n3cncn3)c3ncnc(N)c23)cc1` (stereo not shown) [Compound 146], the IC50 at BTK wildtype protein and on BTK C481S protein was ≤ 1000 nM throughout.
Regarding `CC1(C)CC(n2nc(-c3ccc(Oc4ccccc4)cc3)c3c(N)ncnc32)CCN1C(=O)n1cncn1` (stereo not shown) [Compound 148, (4-(4-amino-3-(4-phenoxyphenyl)-1H-pyrazolo[3,4-d]pyrimidin-1-yl)-2,2-dimethylpiperidin-1-yl)(1H-1,2,4-triazol-1-yl)methanone], the IC50 on BTK wildtype protein and at BTK C481S protein was ≤ 1000 nM in each case.
For `CN(CC1CNc2c(C(N)=O)c(-c3ccc(Oc4ccccc4)cc3)nn2C1)C(=O)n1cncn1` (stereo not shown) [Compound 149, 6-((N-methyl-1H-1,2,4-triazole-1-carboxamido)methyl)-2-(4-phenoxyphenyl)-4,5,6,7-tetrahydropyrazolo[1,5-a] pyrimidine-3-carboxamide], the IC50 on BTK wildtype protein and at BTK C481S protein was > 1000 nM throughout.
`COC[C@H](C1CCNc2c(C(N)=O)c(-c3ccc(Oc4ccccc4)cc3)nn21)N(C)C(=O)n1cncn1` (stereo partly drawn) [Compound 156, 7-((S)-2-methoxy-1-(N-methyl-1H-1,2,4-triazole-1-carboxamido)ethyl)-2-(4-phenoxyphenyl)-4,5,6,7-tetrahydropyrazolo[1,5-a] pyrimidine-3-carboxamide]: the IC50 at BTK wildtype protein and on BTK C481S protein was > 1000 nM each time.
Regarding `COc1ccc(C)cc1C(=O)NCc1ccc(-c2nn(CC3CCCCN3C(=O)n3cnnn3)c3ncnc(N)c23)cc1` (stereo not shown) [Compound 158, N-(4-(1-((1-(1H-tetrazole-1-carbonyl)piperidin-2-yl)methyl)-4-amino-1H-pyrazolo[3,4-d]pyrimidin-3-yl)benzyl)-2-methoxy-5-methylbenzamide], the IC50 at BTK wildtype protein was ≤ 1000 nM; on BTK C481S protein, > 1000 nM.
Turning to `NC(=O)c1c(-c2ccc(Oc3ccccc3)cc2)nn(C2CCCCN(C(=O)n3cncn3)C2)c1N` (stereo not shown) [Compound 159, 1-(1-(1H-1,2,4-triazole-1-carbonyl)azepan-3-yl)-5-amino-3-(4-phenoxyphenyl)-1H-pyrazole-4-carboxamide], the IC50 on BTK wildtype protein and on BTK C481S protein was ≤ 1000 nM in each case.
On to `COc1ccc(F)cc1C(=O)NCc1ccc(-c2nn(C(CCN(C)C(=O)n3cncn3)C3CC3)c3ncnc(N)c23)cc1` (stereo not shown) [Compound 161], for which the figures for the IC50 at BTK wildtype protein and on BTK C481S protein were ≤ 1000 nM and > 1000 nM, respectively.
For `NC(=O)c1c(-c2ccc(Oc3ccccc3)cc2)nn(C2CCCN(C(=O)n3cncn3)C2)c1N` (stereo not shown) [Compound 163, 1-(1-(1H-1,2,4-triazole-1-carbonyl)piperidin-3-yl)-5-amino-3-(4-phenoxyphenyl)-1H-pyrazole-4-carboxamide], the IC50 at BTK wildtype protein and on BTK C481S protein was ≤ 1000 nM throughout.
Consider `COc1ccc(F)cc1C(=O)NCc1ccc(-c2nn(C[C@@H]3CCCCN3C(=O)n3cncn3)c3[nH]c(=O)[nH]c(=O)c23)cc1` [Compound 164], for which the IC50 on BTK wildtype protein and on BTK C481S protein was ≤ 1000 nM each time.
For the molecule `NC(=O)c1c(-c2ccc(Oc3ccccc3)cc2)nn(C2CCC3(C2)CN(C(=O)n2cncn2)C3)c1N` (stereo not shown) [Compound 165, 1-(2-(1H-1,2,4-triazole-1-carbonyl)-2-azaspiro[3.4]octan-6-yl)-5-amino-3-(4-phenoxyphenyl)-1H-pyrazole-4-carboxamide], the IC50 on BTK wildtype protein and at BTK C481S protein was ≤ 1000 nM each time.
Turning to `CN(CCC1CCNc2c(-c3ccc(Oc4ccccc4)cc3)c(C(N)=O)nn21)C(=O)n1cncn1` (stereo not shown) [Compound 167, 7-(2-(N-methyl-1H-1,2,4-triazole-1-carboxamido)ethyl)-3-(4-phenoxy-phenyl)-4,5,6,7-tetrahydro-pyrazolo[1,5-a]pyrimidine-2-carboxamide], the IC50 on BTK wildtype protein and at BTK C481S protein was > 1000 nM in each case.
Regarding `Cc1[nH]c2c(C(N)=O)cc(F)c(N3CCCC4(CCN4C(=O)n4cncn4)C3)c2c1C` (stereo not shown) [Compound 171, 4-(1-(1H-1,2,4-triazole-1-carbonyl)-1,6-diazaspiro[3.5]nonan-6-yl)-5-fluoro-2,3-dimethyl-1H-indole-7-carboxamide], the IC50 at BTK wildtype protein and at BTK C481S protein was ≤ 1000 nM in each case.

These data come from patent US20240294531A1, “COVALENT HETEROCYCLES AND USES THEREOF” (Kumquat Biosciences Inc., priority 2022, published 2024).
